Data reported in PMC4718940, “Preclinical studies of 5-fluoro-2′-deoxycytidine and tetrahydrouridine in pediatric brain tumors” (Journal of Neuro-Oncology, 2015).
Read-outs that look alike come from different tables or passages of the source.

Key:
EP cells [1] = assay: FdCyd wash-out experiment, EP; format: cell-based; settings: Mus musculus
Protocol: (§1) Myc1 and Myc2 G3 MB, EP, and CPC tumor cells (Supplementary Table 1) were plated in 96-well plates. After 24 h, 128 nL of a dilution series of a selected drug was transferred creating a final drug concentration of 0.5–9.3 µM. To assess the optimal exposure time, the drug was removed and replaced with fresh medium after 1, 3, 6, 10, 24, or 72 h (“wash-out”).
(§2) In both experiments, 72 h after drug addition to cells, we added 100 µL of CellTiter-Glo reagent (Promega), and we read the luminescence signal. Data analysis used GraphPad Prism software (Version 5.04).

[2] = system: tumorspheres derived from murine G3 MB, EP, and CPC; assay: In vitro growth inhibition, all three tumor cell types (summary); format: cell-based; settings: Mus musculus, 72 hr
[3] = system: Trp53−/−, Cdkn2c−/− neurospheres; assay: In vitro cell cycle and apoptosis, control neurospheres; format: cell-based, mouse; settings: 4 nM FdCyd
Text: (§3) See Supplementary Material for more details.
(§4) Tumors were fixed in 10% formalin.

HEPG2 cells = assay: FdCyd growth inhibition, HEPG2 control cells; format: cell-based, human; settings: Fig. 2c
[4] = system: Patient-derived xenograft of a human G3 medulloblastoma, TB-12-5950; assay: 72 h dose response, CellTiter-Glo, human G3 MB PDX cells; format: cell-based; settings: Fig. 2b
[5] = In vitro brain homogenate binding; format: in vitro ADME; settings: data not shown, read-out: fu,b (unbound fraction, brain homogenate)
EP tumors = assay: In vivo apoptosis, Caspase 3 immunohistochemistry, EP
[6] = In vitro plasma protein binding; format: in vitro ADME; settings: data not shown, read-out: fu,p (unbound fraction, plasma protein)
[7] = system: Mouse G3 MB Myc1 neurospheres; assay: 72 h dose response, CellTiter-Glo, mouse G3 MB neurospheres; format: cell-based; settings: Mus musculus, Fig. 2a, read-out: EC50
Protocol: In the Discovery Phase, the initial studies included the screen of a library of 9 compounds against epigenetic regulators at a single concentration and a dose-response on G3 MB, EP, and CPC tumor cells, as well as HEPG2 and BJ (Fig. 1). The library and dose response studies are described in the Supplementary Material.
Briefly, cells (see Supplementary Table S2 for cell identity) were plated in 384-well plates (Corning) in 30 µL of supplemented neurobasal medium by using an automated plate filler (Wellmate, Matrix). After 24 hr, 28 nL of compound was transferred via pin tool, resulting in a final drug concentration of approximately 4 nM to 10 µM. After 72 hr of treatment, CellTiter-Glo reagent (Promega) was added, and the luminescence signal was measured using an automated Envision plate reader (Perkin-Elmer). Luminescence data were normalized by log10-transformation prior to calculating the percentage of inhibition using the following equation: 100 × (negative control mean − compound value)/(negative control mean − positive control mean). Our negative control represents cells treated with 0.1% DMSO with 0% inhibition. Cells treated with 35 µM cycloheximide (G3 MB tumor spheres) or 10 µM panobinostat (EP and CPC cells) were used as positive controls with 100% inhibition. The response of cells to the compounds were normalized to that of the positive controls present in each plate screened, shown in the Y axis of the dose-response curve. […] Unless otherwise reported, the y-axis for each dose response curve in the figures was independently normalized to the range from 0 to 1 and therefore reported as ‘relative growth inhibition’. High through put assay data were analyzed by using our in-house Robust Interpretation of Screening Experiments (RISE) application that was written in Pipeline Pilot (Accelrys, v. 8.5) and R (R Development Core Team).

G3 MB tumors [8] = assay: In vivo apoptosis, Caspase 3 immunohistochemistry, G3 MB
EP cells [9] = assay: Effect of deoxycytidine on FdCyd efficacy, 72 h, CellTiter-Glo; format: cell-based; settings: Mus musculus; FdCyd alone, 72 h exposure
Protocol: To test the effect of deoxycytidine on FdCyd efficacy, EP cells were plated in 96 well plates. After 24 h, FdCyd was added at final concentrations ranging from 0.1 nM to 50 μM alone or together with fixed concentration of deoxycytidine (Sigma) of 0.0122, 0.195, 6.25 or 100 μM.
as §2

CPC tumors = assay: In vivo apoptosis, Caspase 3 immunohistochemistry, CPC
[10] = system: mouse G3 MB tumorspheres (Myc1, Myc2); assay: In vitro apoptosis, Annexin V and DAPI FACS; format: cell-based; settings: 4 nM FdCyd alone, 24, 48, 72 h, compared to DMSO-treated cells
Text: as §3, §4

CPC cells = assay: FdCyd wash-out experiment, CPC; format: cell-based; settings: Mus musculus
Protocol: as §1, §2

G3 MB tumors [11] = assay: In vivo proliferation, Ki67 immunohistochemistry, G3 MB
[12] = system: mouse G3 MB tumorspheres (Myc1, Myc2); assay: In vitro proliferation/cell cycle, BrdU FACS; format: cell-based; settings: 4 nM FdCyd alone, compared to DMSO-treated cells
Text: as §3, §4

[13] = system: Trp53−/−, Cdkn2c−/− neurospheres; assay: FdCyd growth inhibition, control neurospheres; format: cell-based, mouse; settings: Fig. 2c
[14] = system: Patient-derived xenograft of a human EP; assay: 72 h dose response, CellTiter-Glo, human EP PDX cells; format: cell-based; settings: Fig. 2b
[15] = 1 h exposure then wash-out, read at 72 h, read-out: EC50 after 1 h FdCyd exposure
[16] = 72 h, wash-out, 1st of 4 values listed for the remaining time points (3, 6, 10, 24, 72 h), read-out: EC50, longer exposure
[17] = 72 h, wash-out, 2nd of 4 values listed for the remaining time points (3, 6, 10, 24, 72 h), read-out: EC50, longer exposure
[18] = 72 h, wash-out, 3rd of 4 values listed for the remaining time points (3, 6, 10, 24, 72 h), read-out: EC50, longer exposure
[19] = 72 h, wash-out, 4th of 4 values listed for the remaining time points (3, 6, 10, 24, 72 h), read-out: EC50, longer exposure

- EC50 (EP cells [1]; [15]): 22 ± 8 nM
- EC50 (EP cells [1]; [16]): 17 nM
- EC50 (EP cells [1]; [17]): 13 nM
- EC50 (EP cells [1]; [18]): 3 nM
- EC50 (EP cells [1]; [19]): 0.7 nM
- EC50 [2]: 1 to 6 nM
- EC50 [4]: 1 nM
- fraction unbound [5]: ~1
- fraction unbound [6]: ~1
- EC50 (CPC cells; [15]): 63 ± 28 nM
- EC50 (CPC cells; [16]): 58 nM
- EC50 (CPC cells; [17]): 44 nM
- EC50 (CPC cells; [18]): 31 nM
- EC50 (CPC cells; [19]): 1 nM
Compound: Nc1nc(=O)n([C@H]2C[C@H](O)[C@@H](CO)O2)cc1F [FdCyd, 5-fluoro-2′-deoxycytidine]
- effect on cell cycle and apoptosis of control neurospheres [3]: without affecting control neurospheres
- sensitivity to FdCyd (growth inhibition) (HEPG2 cells): not
- Caspase-3 % of positive cells (EP tumors; 3 hr after IP injection of FdCyd + THU, vehicle 0.9975): 1.416%
- Caspase-3 % of positive cells (EP tumors; 8 hr after IP injection of FdCyd + THU, vehicle 1.110): 1.210%
- Caspase-3 % of positive cells (EP tumors; 24 hr after IP injection of FdCyd + THU, vehicle 1.427): 1.030%
- EC50 [7]: 1.7 nM
- Caspase-3 % of positive cells (G3 MB tumors [8]; 3 hr after IP injection of FdCyd + THU, vehicle 12.37): 19.88%
- Caspase-3 % of positive cells (G3 MB tumors [8]; 8 hr after IP injection of FdCyd + THU, vehicle 8.945): 11.04%
- Caspase-3 % of positive cells (G3 MB tumors [8]; 24 hr after IP injection of FdCyd + THU, vehicle 9.419): 10.38%
- EC50 (EP cells [9]): 50 nM
- Caspase-3 % of positive cells (CPC tumors; 3 hr after IP injection of FdCyd + THU, vehicle 3.963): 10.63%
- Caspase-3 % of positive cells (CPC tumors; 8 hr after IP injection of FdCyd + THU, vehicle 4.917): 2.297%
- Caspase-3 % of positive cells (CPC tumors; 24 hr after IP injection of FdCyd + THU, vehicle 3.493): 6.797%
- number of apoptotic cells (Annexin V) [10]: increased
- Ki67 % of positive cells (G3 MB tumors [11]; 3 hr after IP injection of FdCyd + THU, vehicle 87.77): 84.97%
- Ki67 % of positive cells (G3 MB tumors [11]; 8 hr after IP injection of FdCyd + THU, vehicle 78.11): 76.50%
- Ki67 % of positive cells (G3 MB tumors [11]; 24 hr after IP injection of FdCyd + THU, vehicle 85.15): 77.15%
- cell cycle distribution (BrdU) [12]: increased the number of cells in the G0/G1phase
- sensitivity to FdCyd (growth inhibition) [13]: showed sensitivity
- EC50 [14]: 8.3 nM
